# Measurements reported in patent publication US20090137681A1, “Sirtuin Inhibiting Compounds” (priority 2005, published 2009).
# “Also recorded” adds a separate entry of the source.
# Key:
# yeast Sir2 (ySir2) = target: T1, yeast Sir2 (ySir2) (Saccharomyces cerevisiae, UniProt P06700); test: Yeast Sir2 deacetylase inhibition, HDAC fluorescent activity assay (BIOMOL AK-500); type: biochemical; conditions: for inhibition at 100 µM: 100 μM inhibitor, read-out: % inhibtn (100 μM) ySir2; for inhibition at 100 µM / IC50: 200 μM NAD+, 30° C., 60 min; for ySir2 inhibitory activity, in words: compared with sirtinol 1
# T1 construct: His; made in house
# Procedure: (§1) Recombinant His-tagged yeast ySir2 and His-tagged hSIRT1 were purified and assayed for deacetylase activity using the HDAC fluorescent activity assay/drug discovery kit (AK-500, BIOMOL Research Laboratories).^55 This assay system allows detection of a fluorescent signal upon deacetylation of a histone substrate when treated with developer. Fluorescence was measured on a fluorometric reader (Wallac Victor III fluorescence plate reader Perkin Elmer) with excitation set at 360 nm and emission detection set at 450 nm. Reactions consisted of either 3 μg of ySir2 or 1 μg of SIRT1, incubated with 250 μM acetylated histone substrate, 1 mM dithiothreitol, and a range of inhibitor concentrations as described. Reactions with the yeast and human proteins were carried out at 30 and 37° C., respectively, for 60 min. Assays were performed in the presence of 200 μM NAD^+ and each of the inhibitors at 0, 20, 75, 100, 150, or 300 μM concentrations.
# as §1, with “In Vitro Yeast Sir2 Enzyme Inhibition. Recombinant” for “Recombinant”, “Sir2p was” for “ySir2 and His-tagged hSIRT1 were”, “Laboratories).^42” for “Laboratories).^55”, “of” for “of either”, “ySir2” for “ySir2 or 1 μg of SIRT1,”
# human SIRT1 (hSIRT1) = target: T2, human SIRT1 (hSIRT1) (Homo sapiens, UniProt Q96EB6); test: Human SIRT1 deacetylase inhibition, HDAC fluorescent activity assay (BIOMOL AK-500); type: biochemical; conditions: for inhibition at 100 µM: 100 μM inhibitor, read-out: % inhibtn (100 μM) hSIRT1; for inhibition at 100 µM / IC50: 200 μM NAD+, 37° C., 60 min; for fold more potent than sirtinol (1) in inhibiting hSIRT1: relative to sirtinol 1
# T2 construct: His; made in house
# T2 sequence (Q96EB6 1-747): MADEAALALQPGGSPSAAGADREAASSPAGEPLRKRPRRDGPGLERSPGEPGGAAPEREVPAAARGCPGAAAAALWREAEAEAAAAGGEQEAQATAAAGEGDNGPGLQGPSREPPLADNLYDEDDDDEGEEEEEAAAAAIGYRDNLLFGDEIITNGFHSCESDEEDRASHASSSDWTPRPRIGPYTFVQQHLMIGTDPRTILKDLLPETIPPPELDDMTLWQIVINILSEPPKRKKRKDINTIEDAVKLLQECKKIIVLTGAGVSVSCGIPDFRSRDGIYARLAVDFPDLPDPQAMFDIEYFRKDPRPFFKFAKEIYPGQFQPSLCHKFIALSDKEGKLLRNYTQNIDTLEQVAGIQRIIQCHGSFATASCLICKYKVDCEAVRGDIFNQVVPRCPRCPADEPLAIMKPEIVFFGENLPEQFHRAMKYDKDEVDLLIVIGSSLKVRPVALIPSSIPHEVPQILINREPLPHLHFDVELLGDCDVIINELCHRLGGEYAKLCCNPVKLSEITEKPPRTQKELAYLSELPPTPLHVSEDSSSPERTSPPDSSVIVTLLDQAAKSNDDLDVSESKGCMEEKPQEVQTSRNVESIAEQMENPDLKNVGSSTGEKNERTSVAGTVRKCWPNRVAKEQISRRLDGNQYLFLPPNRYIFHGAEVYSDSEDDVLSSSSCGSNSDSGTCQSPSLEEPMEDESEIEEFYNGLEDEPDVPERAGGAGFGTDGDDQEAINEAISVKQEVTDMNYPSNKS
# Procedure: as §1
# SIRT2 isoform 1 = target: T3, SIRT2 isoform 1 (Homo sapiens, UniProt Q8IXJ6); test: SIRT2 deacetylase inhibition, HDAC fluorescent activity assay (BIOMOL AK-500); type: biochemical; conditions: for inhibition at 100 µM: read-out: SIRT2 % inhibition at 100 μM, 100 μM compound; for IC50: dose response curve; for fold more potent than 1 in inhibiting SIRT2: relative to sirtinol 1
# T3 construct: His; made in house
# T3 sequence (Q8IXJ6 1-389): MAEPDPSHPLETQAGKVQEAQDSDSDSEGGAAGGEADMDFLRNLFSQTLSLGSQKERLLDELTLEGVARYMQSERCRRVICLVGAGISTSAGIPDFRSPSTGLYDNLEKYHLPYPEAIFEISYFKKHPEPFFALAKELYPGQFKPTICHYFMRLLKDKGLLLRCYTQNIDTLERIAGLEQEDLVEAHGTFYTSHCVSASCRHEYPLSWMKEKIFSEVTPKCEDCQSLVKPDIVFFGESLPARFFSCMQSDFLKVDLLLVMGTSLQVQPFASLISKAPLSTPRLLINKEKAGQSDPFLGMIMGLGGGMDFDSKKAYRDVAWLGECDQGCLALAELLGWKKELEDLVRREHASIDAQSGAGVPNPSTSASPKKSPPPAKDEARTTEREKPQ
# Procedure: as §1
# Recombinant His-tagged SIRT2 isoform 1 was purified and assayed for deacetylase activity using the HDAC fluorescent activity assay/drug discovery kit (AK-500, BIOMOL Research Laboratories) as described above. […] A dose response curve for determining the IC50 was also done.
# [1] = system: Sir2-mediated telomeric URA3 gene silencing; test: Telomeric silencing assay (phenotypic screening, URA3 reporter, 5-FOA); type: cell-based, yeast; conditions: relative to sirtinol 1, plates with 5-FOA, densitometric scanning at 16.7 μM
# Procedure: Wildtype (AYH2.45)^50 and sir2Δ (STY30)^50 strains were grown to exponential phase (0.5 OD/mL) in YPD medium and cells were spotted in 10-fold dilutions on SC medium containing 1 mg/mL 5-fluoroorotic acid (5-FOA).^51 When appropriate, cells were grown on plates containing 0.18% DMSO and the specified concentration of Sir2 inhibitor (5.6 and 16.7 μM). Cell growth was evaluated after 3-4 d at 30° C.
# The yeast strain contained a URA3 reporter gene integrated into the sub-telomeric region of chromosome VII-L where it is silenced by Sir2.^50 In the presence of 5-fluoroorotic acid (5-FOA), loss of transcriptional silencing in this strain and the corresponding increase in URA3 expression is lethal (FIG. 2).^51
# A semi-quantitative assay of the spots on the plates treated with 5-FOA and the Sir2 inhibitors at 16.7 μM concentration was performed by densitometric scanning of the plates.
# T1 sequence (P06700 whole entry): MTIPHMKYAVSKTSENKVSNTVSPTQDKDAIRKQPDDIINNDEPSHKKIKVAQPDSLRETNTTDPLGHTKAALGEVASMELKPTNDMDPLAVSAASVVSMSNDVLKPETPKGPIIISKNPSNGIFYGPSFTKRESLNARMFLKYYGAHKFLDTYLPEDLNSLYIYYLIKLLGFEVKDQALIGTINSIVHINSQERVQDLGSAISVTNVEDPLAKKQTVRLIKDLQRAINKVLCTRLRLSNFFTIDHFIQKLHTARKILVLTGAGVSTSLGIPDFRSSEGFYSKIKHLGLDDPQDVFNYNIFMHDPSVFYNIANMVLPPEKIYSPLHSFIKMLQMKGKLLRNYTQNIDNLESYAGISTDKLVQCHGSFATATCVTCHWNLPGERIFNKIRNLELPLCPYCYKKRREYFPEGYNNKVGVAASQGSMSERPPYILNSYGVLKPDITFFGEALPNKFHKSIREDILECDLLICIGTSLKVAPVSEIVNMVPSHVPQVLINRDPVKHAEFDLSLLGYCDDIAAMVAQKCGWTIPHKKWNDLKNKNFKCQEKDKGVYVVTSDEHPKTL
SMILES,inhibition at 100 µM (yeast Sir2 (ySir2)),inhibition at 100 µM (human SIRT1 (hSIRT1)),inhibition at 100 µM (SIRT2 isoform 1),melting point,fold less potent than sirtinol (1) in inhibiting ySir2 (yeast Sir2 (ySir2); relative to sirtinol 1),"ySir2 inhibitory activity, in words (yeast Sir2 (ySir2))",other results
"CC(NC(=O)c1ccccc1/N=C/c1c(O)ccc2ccccc12)c1ccccc1 (racemic) [Compound 1, sirtinol, reference compound]",65.6%,44.5%,71%,,,,
CCOC(=O)c1ccccc1/N=C/c1c(O)ccc2ccccc12 [Compound 3],20%,9%,,,3 fold,,
NC(=O)c1ccccc1/N=C/c1c(O)ccc2ccccc12 [Compound 5],0 to 5%,0 to 5%,,238 to 240 °C,,totally inactive; also recorded: total loss of Sir2 inhibitory activity,"hSIRT1 inhibitory activity, in words (human SIRT1 (hSIRT1)): totally inactive"
N#Cc1ccccc1/N=C/c1c(O)ccc2ccccc12 [Compound 6],15%,20%,,139 to 141 °C,4 fold,,
"CC(NC(=O)c1cccc(/N=C/c2c(O)ccc3ccccc23)c1)c1ccccc1 (stereo not shown) [Compound 7, 3-[(2-hydroxy-1-naphthalenylmethylene)amino]-N-(1-phenylethyl)benzamide]",53.9%,63%,79.2%,,1.5 fold,IC50 values similar to that of 1; also recorded: IC50 values similar to those of 1,"IC50 (yeast Sir2 (ySir2)): 72 ± 3 µM; IC50 (human SIRT1 (hSIRT1)): 59 ± 2 µM; fold more potent than sirtinol (1) in inhibiting hSIRT1 (human SIRT1 (hSIRT1)): 2.2 fold; fold more potent than sirtinol (1) in inhibiting hSIRT1 (human SIRT1 (hSIRT1); listed as meta-sirtinol): 2 fold; IC50 (SIRT2 isoform 1): 35.7 µM; fold more potent than 1 in inhibiting SIRT2 (SIRT2 isoform 1): 1.6 fold; Sir2 inhibitory potency in phenotypic screening, in words [1]: more potent inhibitors than 1; also recorded: more potent than sirtinol; also recorded: same potent Sir2 inhibitory as 1; Sir2 inhibitory potency in phenotypic screening, in words ([1]; listed as meta-sirtinol): more potent Sir2 inhibitory activity than sirtinol"
"CC(NC(=O)c1ccc(/N=C/c2c(O)ccc3ccccc23)cc1)c1ccccc1 (stereo not shown) [Compound 8, 4-[(2-hydroxy-1-naphthalenylmethylene)amino]-N-(1-phenylethyl)benzamide]",59.8%,82.6%,80.2%,,,IC50 values similar to that of 1; also recorded: IC50 values similar to those of 1,"IC50 (yeast Sir2 (ySir2)): 33 ± 1 µM; fold more potent than sirtinol (1) in inhibiting ySir2 (yeast Sir2 (ySir2); relative to sirtinol 1): 1.5 fold; IC50 (human SIRT1 (hSIRT1)): 13 µM; fold more potent than sirtinol (1) in inhibiting hSIRT1 (human SIRT1 (hSIRT1)): 10 fold; fold more potent than sirtinol (1) in inhibiting hSIRT1 (human SIRT1 (hSIRT1); listed as para-sirtinol): 8 fold; SIRT2 inhibitory potency, in words (SIRT2 isoform 1; among compounds 1, 7-10): most potent; IC50 (SIRT2 isoform 1): 25.9 µM; fold more potent than 1 in inhibiting SIRT2 (SIRT2 isoform 1): 2.2 fold; Sir2 inhibitory potency in phenotypic screening, in words ([1]; listed as para-sirtinol): more potent Sir2 inhibitory activity than sirtinol"

# Further lines, with some results ahead:
inhibition at 100 µM (yeast Sir2 (ySir2)),inhibition at 100 µM (human SIRT1 (hSIRT1)),inhibition at 100 µM (SIRT2 isoform 1),melting point,fold less potent than sirtinol (1) in inhibiting ySir2 (yeast Sir2 (ySir2); relative to sirtinol 1),SMILES,"ySir2 inhibitory activity, in words (yeast Sir2 (ySir2))",other results
10%,33%,,101 to 103 °C,,"CC(NC(=O)c1ccccc1/N=C/c1cccc2ccccc12)c1ccccc1 (stereo not shown) [Compound 2, 2-[(1-naphthalenylmethylene)amino]-N-(1-phenylethyl)benzamide]",,
5%,26%,,180 to 182 °C,,O=C(O)c1ccccc1/N=C/c1c(O)ccc2ccccc12 [Compound 4],,
55.5%,61.8%,72.2%,,,"C[C@@H](NC(=O)c1ccccc1/N=C/c1c(O)ccc2ccccc12)c1ccccc1 [Compound 9, (R)-sirtinol]",IC50 values similar to that of sirtinol 1,
57%,60.2%,73.5%,,,"C[C@H](NC(=O)c1ccccc1/N=C/c1c(O)ccc2ccccc12)c1ccccc1 [Compound 10, (S)-2-[(2-hydroxy-1-naphthalenylmethylene)amino]-N-(1-phenylethyl)benzamide]",IC50 values similar to that of sirtinol 1,
